Experimental data reported in US8901105B2, “Prodrug derivatives of (E)-N-methyl-N-((3-M ethylbenzofuran-2-yl)methyl)-3-(7-oxo-5,6,7,8-tetrahydro-1,8-naphthyridin-3-yl)acrylamide” (Affinium Pharmaceuticals, Inc., priority 2012, dated 2014).
Counter-ions that a name gives are not always drawn. Like-named read-outs stand apart in the source and are kept apart here.

Assays:
[1] = test system: Streptococcus pyogenes; test: Broth microdilution MIC; format: cell-based
Description: (§1) Bacterial Isolates. Organisms tested in this study are listed in Table P. Clinical isolates consisted of 5 Staphylococcus aureus (MSSA), 3 Staphylococcus aureus (HA-MRSA), 2 Staphylococcus aureus (CA-MRSA), 2 Enterococcus faecalis (VSE), 2 Streptococcus pyogenes, and 2 Escherichia coli (susceptible to most antibiotics). S. aureus ATCC 29213, E. faecalis ATCC 29212, S. pneumoniae ATCC 49619, and E. coli ATCC 25922 were tested for the purposes of quality control.
(§2) Minimal Inhibitory Concentrations (MIC) values against the selected isolates were determined using the reference broth microdilution method according to the Clinical Laboratory Standards Institute (CLSI) guidelines.
(§3) The MIC was read and recorded as the lowest concentration of drug that inhibited visible growth of the organism.

[2] = test system: Staphylococcus aureus; test: Broth microdilution MIC; format: cell-based; details: for MIC: Staphylococcus aureus, read-out: MIC
Description: as §1, §2, §3

[3] = test system: Escherichia coli; test: Broth microdilution MIC; format: cell-based; details: Escherichia coli, read-out: MIC
Description: as §1, §2, §3

[4] = test system: Streptococcus pneumoniae; test: Broth microdilution MIC; format: cell-based; details: ATCC49619, S. pneumoniae ATCC 49619, read-out: MIC
Description: as §1, §2, §3

[5] = test system: Enterococcus faecalis; test: Broth microdilution MIC; format: cell-based
Description: as §1, §2, §3

[6] = XRPD crystal form after storage; format: physicochemical; details: after 3 months at all conditions
Description: Various compounds disclosed herein have been placed on long-term solid-state stability protocol. The compounds were stored in glass vials closed with PTFE lined caps at 30° C./65% RH, 40° C./75% RH, 50° C. and 60° C. (ambient humidity). The results of the study after 4 weeks are shown in Table B1 and after 3 months in Table B2. Appearance and purity analysis were conducted using HPLC and XPRD. The HPLC analyses were conducted using standard equipment such as a Agilent HP1100 HPLC (Station ID: LZPES HPLC 04) with YMC-Pack ODS-AQ sub 3 μm, 150×4.6 mm Samples were prepared for XRPD by sprinkling ˜20 mg onto a Si wafer zero background plate and pressing the material flat to ensure the surface is smooth and level. The samples were analyzed according the equipment parameters below.

[7] = target: T1, S. aureus FabI (Staphylococcus aureus, UniProt Q6GI75); test: Inhibition of S. aureus FabI; format: biochemical
T1 sequence (Q6GI75 1-256): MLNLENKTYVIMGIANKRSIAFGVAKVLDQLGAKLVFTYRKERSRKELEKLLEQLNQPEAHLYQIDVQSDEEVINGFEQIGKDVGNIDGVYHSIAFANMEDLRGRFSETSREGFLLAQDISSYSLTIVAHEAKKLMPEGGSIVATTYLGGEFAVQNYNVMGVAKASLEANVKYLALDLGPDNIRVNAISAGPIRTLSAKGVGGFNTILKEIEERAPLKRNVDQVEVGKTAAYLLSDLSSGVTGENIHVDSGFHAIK

[8] = Photostability of solid salts; format: physicochemical
[9] = Solution stability in water for injection (WFI); format: physicochemical
[10] = Stability to gamma irradiation; format: physicochemical
Text: There was no change in appearance and it remained partially crystalline over 1 month at all storage conditions.

[11] = Solution stability in 5% dextrose in water (D5W); format: physicochemical
[12] = 1 mg/mL solution, 5° C., 4 hours
[13] = 1 mg/mL solution, 5° C., 24 hours
[14] = 1 mg/mL solution, 5° C., 48 hours
[15] = 1 mg/mL solution, −20° C., 48 hours
[16] = 25 mg/mL solution, 5° C., 4 hours
[17] = 25 mg/mL solution, 5° C., 24 hours
[18] = 25 mg/mL solution, 5° C., 48 hours
[19] = 25 mg/mL solution, RT, 24 hours
[20] = 25 mg/mL solution, RT, 48 hours
[21] = 25 mg/mL solution, −20° C., 48 hours

Structure (SMILES): Cc1c(CN(C)C(=O)/C=C/c2cnc3c(c2)CCC(=O)N3COP(=O)(O)O)oc2ccccc12 [Compound 10, (E)-6-[(N-methyl-((3-methylbenzofuran-2-yl)methyl)amino)-3-oxoprop-1-en-1-yl)-2-oxo-3,4-dihydro-1,8-naphthyridin-1(2H)-yl]methylphosphate bis-ethanolammonium salt]
- MIC ([1]; S. pyogenes 6528): >16 µg/mL
- MIC ([1]; Streptococcus pyogenes, S. pyogenes 6179, read-out: MIC): > 16 µg/mL
- MIC ([2]; ATCC29213, S. aureus ATCC 29213): 4 µg/mL
- MIC ([2]; MRSA, S. aureus 3083, HA-MRSA): 4 µg/mL
- MIC ([2]; MRSA, S. aureus 3086, HA-MRSA): 16 µg/mL
- MIC ([2]; MRSA, S. aureus 3265, HA-MRSA): 16 µg/mL
- MIC ([2]; MSSA, S. aureus 3104, MSSA): > 16 µg/mL
- MIC ([2]; MSSA, S. aureus 3107, MSSA): 8 µg/mL
- MIC ([2]; MSSA, S. aureus 3245, MSSA): 16 µg/mL
- MIC ([2]; MSSA, S. aureus 3250, MSSA): 8 µg/mL
- MIC ([2]; MSSA, S. aureus 3856, MSSA): 16 µg/mL
- MIC ([2]; S. aureus 2168, CAMRSA): 4 µg/mL
- MIC ([2]; S. aureus 2294, CAMRSA): 16 µg/mL
- times less activity than Compound Z ([2]; panel of 11 S. aureus strains): 500-4000 times
- MIC ([3]; ATCC25922, E. coli ATCC 25922): > 16 µg/mL
- MIC ([3]; E. coli 2214): > 16 µg/mL
- MIC ([3]; E. coli 5255): > 16 µg/mL
- MIC [4]: > 16 µg/mL
- MIC ([5]; ATCC29212, E. faecalis ATCC 29212, read-out: MIC): > 16 µg/mL
- MIC ([5]; E. faecalis 4158, VSE, read-out: MIC): > 16 µg/mL
- MIC ([5]; E. faecalis 4212, VSE, read-out: MIC): > 16 µg/mL
- change in crystal form (XRPD) [6]: no change in crystal form
- inhibition of S. aureus FabI [7]: no inhibition
- Control % Area (Table C) ([8]; control sample at ambient lab conditions protected from light): 98.9 % Area
- Photo-stability % Area ([8]; exposed to 60% of ICH minimum): 97.7 % Area
- Solution stability [9, 12]: 0.96 mg/mL
- Solution stability % Area [9, 12]: 99.4 % Area
- Solution stability [9, 13]: 0.94 mg/mL
- Solution stability % Area [9, 13]: 98.1 % Area
- Solution stability [9, 14]: 0.96 mg/mL
- Solution stability % Area [9, 14]: 98.1 % Area
- Solution stability ([9]; 1 mg/mL solution, Initial): 0.97 mg/mL
- Solution stability % Area ([9]; 1 mg/mL solution, Initial): 99.4 % Area
- Solution stability ([9]; 1 mg/mL solution, RT, 4 hours): 0.94 mg/mL
- Solution stability % Area ([9]; 1 mg/mL solution, RT, 4 hours): 99.0 % Area
- Solution stability ([9]; 1 mg/mL solution, RT, 24 hours): 0.92 mg/mL
- Solution stability % Area ([9]; 1 mg/mL solution, RT, 24 hours): 95.5 % Area
- Solution stability ([9]; 1 mg/mL solution, RT, 48 hours): 0.64 mg/mL
- Solution stability % Area ([9]; 1 mg/mL solution, RT, 48 hours): 92.1 % Area
- Solution stability [9, 15]: 0.96 mg/mL
- Solution stability % Area [9, 15]: 99.3 % Area
- Solution stability [9, 16]: 25.0 mg/mL
- Solution stability % Area [9, 16]: 99.3 % Area
- Solution stability [9, 17]: 24.4 mg/mL
- Solution stability % Area [9, 17]: 98.6 % Area
- Solution stability [9, 18]: 23.1 mg/mL
- Solution stability % Area [9, 18]: 98.0 % Area
- Solution stability ([9]; 25 mg/mL solution, Initial): 24.05 mg/mL
- Solution stability % Area ([9]; 25 mg/mL solution, Initial): 99.5 % Area
- Solution stability ([9]; 25 mg/mL solution, RT, 4 hours): 23.9 mg/mL
- Solution stability % Area ([9]; 25 mg/mL solution, RT, 4 hours): 98.8 % Area
- Solution stability [9, 19]: 22.5 mg/mL
- Solution stability % Area [9, 19]: 95.2 % Area
- Solution stability [9, 20]: 22.8 mg/mL
- Solution stability % Area [9, 20]: 91.5 % Area
- Solution stability [9, 21]: 24.4 mg/mL
- Solution stability % Area [9, 21]: 99.2 % Area
- stability to gamma irradiation exposure ([10]; 28.6-30.9 kGy): stable to gamma irradiation
- stability to gamma irradiation ([10]; crystalline, 25 to 31 kGy): stable to gamma irradiation
- Solution stability [11, 12]: 0.99 mg/mL
- Solution stability % Area [11, 12]: 99.4 % Area
- Solution stability [11, 13]: 0.99 mg/mL
- Solution stability % Area [11, 13]: 98.8 % Area
- Solution stability [11, 14]: 1.00 mg/mL
- Solution stability % Area [11, 14]: 98.1 % Area
- Solution stability ([11]; 1 mg/mL solution, Initial): 1.00 mg/mL
- Solution stability % Area ([11]; 1 mg/mL solution, Initial): 99.5 % Area
- Solution stability ([11]; 1 mg/mL solution, RT, 4 hours): 0.99 mg/mL
- Solution stability % Area ([11]; 1 mg/mL solution, RT, 4 hours): 99 % Area
- Solution stability ([11]; 1 mg/mL solution, RT, 24 hours): 0.96 mg/mL
- Solution stability % Area ([11]; 1 mg/mL solution, RT, 24 hours): 96.1 % Area
- Solution stability ([11]; 1 mg/mL solution, RT, 48 hours): 0.95 mg/mL
- Solution stability % Area ([11]; 1 mg/mL solution, RT, 48 hours): 93.1 % Area
- Solution stability [11, 15]: 0.99 mg/mL
- Solution stability % Area [11, 15]: 99.3 % Area
- Solution stability [11, 16]: 24.9 mg/mL
- Solution stability % Area [11, 16]: 99.3 % Area
- Solution stability [11, 17]: 24.5 mg/mL
- Solution stability % Area [11, 17]: 98.7 % Area
- Solution stability [11, 18]: 24.5 mg/mL
- Solution stability % Area [11, 18]: 98.1 % Area
- Solution stability ([11]; 25 mg/mL solution, Initial): 24.4 mg/mL
- Solution stability % Area ([11]; 25 mg/mL solution, Initial): 99.6 % Area
- Solution stability ([11]; 25 mg/mL solution, RT, 4 hours): 24 mg/mL
- Solution stability % Area ([11]; 25 mg/mL solution, RT, 4 hours): 98.9 % Area
- Solution stability [11, 19]: 23.8 mg/mL
- Solution stability % Area [11, 19]: 95.6 % Area
- Solution stability [11, 20]: 23 mg/mL
- Solution stability % Area [11, 20]: 92.1 % Area
- Solution stability [11, 21]: 24.6 mg/mL
- Solution stability % Area [11, 21]: 99.3 % Area
